One data set has as its system PDE4. Kind of data set: PDE4 inhibition, scintillation proximity assay (SPA). It counts as biochemical. In outline: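 Compound pre-diluted 1:10 in 50 mM Tris-HCl pH 7.4, 8.3 mM MgCl2, 1.7 mM EGTA, 3 mg/mL BSA, then incubated with PDE4 and [2,8-3H]-cAMP for 120 min at room temperature. Product captured on ZnSO4-containing YSi-SPA beads for 15 min; radioactivity counted against no-enzyme blank and DMSO control.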
For orientation: SPA uses beads or plates that emit light when radiolabelled molecules are held near them.

Data set [1] is described as follows: Hepatic metabolic stability (rat liver microsome method). It counts as in vitro ADME. Conditions: rat liver microsomes 0.5 mg/mL, test substance 1 μM, NADPH 1 mM, 37° C., 30 minutes. Here is the method:
Metabolic stability in rat liver microsomes was evaluated by the following method. In 100 mM of potassium phosphate buffer solution (pH 7.4), liver microsomes (concentration at reaction: 0.5 mg/mL) and the test substance (concentration at reaction: 1 μM) were preincubated at 37° C. Five minutes later, 100 mM of potassium phosphate buffer (pH 7.4) solution of NADPH (concentration at reaction: 1 mM) was mixed thereto to start the reaction. After a predetermined time passed, acetonitrile was mixed to the reaction mixture to stop the reaction. Here, the reaction time was 0 and 30 minutes, and drug concentration measurement was performed for each time period using LC-MS. The % remaining value of the test compound was calculated from the value for 0 minutes and the value for 30 minutes, using the calculation formula below: % Remaining=(Value for 30 Minutes/Value for 0 Minutes)×100
The results of measuring the rat liver microsome metabolic Stability (% remaining for 30-minute reaction) for the test compound by the above method were evaluated in accordance with the following evaluated basis; A: a % remaining rate of 75% or more, B: 60% or more and less than 75%, C: 45% or more and less than 60%, and D: less than 45%.
A general note: Liver microsomes are vesicles of endoplasmic reticulum, rich in cytochrome P450 enzymes.

[2] abbreviates: scintillation proximity assay (SPA), evaluated as classes A, B, C, read-out: PDE4 Inhibitory Activity (concentration for the inhibition rate of 50%).
[3] abbreviates: scintillation proximity assay, class symbols, read-out: PDE4 Inhibitory Activity.

Read-outs that look alike come from different tables or passages of the source.

Consider `CC(C)(O)C(F)(F)Oc1ccc(-n2cccn2)c2oc(N3CC4CC(C3)N4)nc12` [Example 304, 1-((2-(3,6-Diazabicyclo[3.1.1]heptan-3-yl)-7-(1H-pyrazol-1-yl)benzo[d]oxazol-4-yl)oxy)-1,1-difluoro-2-methylpropan-2-ol], for which the IC50 in the data set on PDE4 (setting [2]) is less than 100 nM. In data set [1], the “Residual ratio (% remaining for 30-minute reaction)” value is recorded as “A (a % remaining rate of 75% or more)”.

As to `CCNC(=O)c1ccc(-c2nccs2)c2oc(N3CC4CC(C3)N4)nc12` [Example 358, 2-(3,6-diazabicyclo [3.1.1]heptan-3-yl)-N-ethyl-7-(thiazol-2-yl) benzo[d]oxazole-4-carboxamide], in the data set on PDE4 (setting [3]), the IC50 was less than 100 nM. Further, in data set [1], the “Residual ratio (% remaining for 30-minute reaction)” value is “A (a % remaining rate of 75% or more)”.

Take `CC(C)(O)C(F)(F)Oc1ccc(-n2cccn2)c2oc(N3CC4CCC(C3)N4)nc12` [Example 316, 1-((2-(3,8-Diazabicyclo[3.2.1]octan-3-yl)-7-(1H-pyrazol-1-yl)benzo[d]oxazol-4-yl)oxy)-1,1-difluoro-2-methylpropan-2-ol]: in the data set with PDE4 (setting [2]), the IC50 was less than 100 nM. For the same molecule, in data set [1], the “Residual ratio (% remaining for 30-minute reaction)” value is listed as “A (a % remaining rate of 75% or more)”.

For the molecule `O=S(=O)(c1ccc(-c2nccs2)c2oc(N3CC4CC(C3)N4)nc12)N1CCOCC1` [Example 391, 2-(3,6-diazabicyclo [3.1.1]heptan-3-yl)-4-(morpholino-sulfonyl)-7-(thiazol-2-yl)benzo [d]oxazole], the IC50 in the data set on PDE4 (setting [3]) is less than 100 nM. Moreover, the “Residual ratio (% remaining for 30-minute reaction)” value in data set [1] was “B (60% or more and less than 75%)”.

Turning to `c1ccc(Oc2ccc(-c3nccs3)c3oc(N4CC5CC(C4)N5)nc23)nc1` [Example 337, 2-(3,6-diazabicyclo [3.1.1]heptan-3-yl)-4-(pyridin-2-yloxy)-7-(thiazol-2-yl)benzo[d] oxazole], the IC50 in the data set on PDE4 (setting [3]) is less than 100 nM. For the same molecule, in data set [1], the “Residual ratio (% remaining for 30-minute reaction)” value was “B (60% or more and less than 75%)”.

As to `c1csc(-c2ccc(OC3CCOCC3)c3nc(N4CC5CCC(C4)N5)oc23)n1` [Example 254, 2-(3,8-Diazabicyclo[3.2.1]octan-3-yl)-4-((tetrahydro-2H-pyran-4-yl)oxy)-7-(thiazol-2-yl)benzo[d]oxazole], in the data set on PDE4 (setting [2]), the IC50 was less than 100 nM. The “Residual ratio (% remaining for 30-minute reaction)” value in data set [1] is on record as “A (a % remaining rate of 75% or more)”.

For `CC(C)(O)C(F)(F)Oc1ccc(-c2ncccn2)c2oc(N3CC4CCC(C3)N4)nc12` [Example 330, 1-((2-(3,8-diazabicyclo [3.2.1]octan-3-yl)-7-(pyrimidin-2-yl)benzo [d]oxazol-4-yl)oxy)-1,1-difluoro-2-methylpropan-2-ol], in the data set on PDE4 (setting [3]), the IC50 is less than 100 nM. Besides, in data set [1], the “Residual ratio (% remaining for 30-minute reaction)” value was “A (a % remaining rate of 75% or more)”.

Take `CC(O)(CO)C(F)(F)Oc1ccc(-c2nccs2)c2oc(N3CC4CC(C3)N4)nc12` (racemic) [Example 326, 3-((2-(3,6-Diazabicyclo[3.1.1]heptan-3-yl)-7-(thiazol-2-yl)benzo[d]oxazol-4-yl)oxy)-3,3-difluoro-2-methylpropane-1,2-diol]: the IC50 with PDE4 (setting [3]) is less than 100 nM. Moreover, the “Residual ratio (% remaining for 30-minute reaction)” value in data set [1] is listed as “A (a % remaining rate of 75% or more)”.

As for `O=C(NCCO)C(F)(F)Oc1ccc(-c2nccs2)c2oc(N3CC4CC(C3)N4)nc12` [Example 411, 2-((2-(3,6-diazabicyclo [3.1.1]heptan-3-yl)-7-(thiazol-2-yl)benzo[d]oxazol-4-yl)oxy)-2,2-difluoro-N-(2-hydroxy-ethyl) acetamide], the IC50 in the data set with PDE4 (setting [3]) is less than 100 nM. In addition, the “Residual ratio (% remaining for 30-minute reaction)” value in data set [1] is “A (a % remaining rate of 75% or more)”.

For `NC(=O)c1ccc(-c2nccs2)c2oc(N3CC4CC(C3)N4)nc12` [Example 354, 2-(3,6-diazabicyclo [3.1.1]heptan-3-yl)-7-(thiazol-2-yl)benzo[d] oxazole-4-carboxamide], the IC50 in the data set on PDE4 (setting [3]) was less than 100 nM. For the same molecule, the “Residual ratio (% remaining for 30-minute reaction)” value in data set [1] is “A (a % remaining rate of 75% or more)”.

`FC(F)(F)Oc1c(Cl)cc(-n2cccn2)c2oc(N3CC4CCC(C3)N4)nc12` [Example 5, 2-(3,8-Diazabicyclo[3.2.1]octan-3-yl)-5-chloro-7-(1H-pyrazol-1-yl)-4-(trifluoromethoxy)benzo[d]oxazole]: in the data set on PDE4 (setting [2]), the IC50 was less than 100 nM. In addition, the “Residual ratio (% remaining for 30-minute reaction)” value in data set [1] was “B (60% or more and less than 75%)”.

As for `COCCNC(=O)c1ccc(-c2nccs2)c2oc(N3CC4CC(C3)N4)nc12` [Example 353, 2-(3,6-diazabicyclo [3.1.1]heptan-3-yl)-N-(2-methoxyethyl)-7-(thiazol-2-yl) benzo[d] oxazole-4-carboxamide], the IC50 in the data set on PDE4 (setting [3]) was less than 100 nM. Further, the “Residual ratio (% remaining for 30-minute reaction)” value in data set [1] was “A (a % remaining rate of 75% or more)”.

As for `O=C(N1CCOCC1)C(F)(F)Oc1ccc(-c2nccs2)c2oc(N3CC4CC(C3)N4)nc12` [Example 409, 2-((2-(3,6-diazabicyclo [3.1.1]heptan-3-yl)-7-(thiazol-2-yl)benzo[d]oxazol-4-yl)oxy)-2,2-difluoro-1-morpholino-ethan-1-one], the IC50 with PDE4 (setting [3]) is less than 100 nM. In addition, the “Residual ratio (% remaining for 30-minute reaction)” value in data set [1] is “B (60% or more and less than 75%)”.

In the case of `FC(F)(F)c1c(Cl)cc(-c2ccccn2)c2oc(N3CC4CCCC(C3)N4)nc12` [Example 12, 2-(3,9-Diazabicyclo[3.3.1]nonan-3-yl)-5-chloro-7-(pyridin-2-yl)-4-(trifluoromethyl)benzo[d]oxazole], in the data set on PDE4 (setting [2]), the IC50 was less than 100 nM. For the same molecule, the “Residual ratio (% remaining for 30-minute reaction)” value in data set [1] is “B (60% or more and less than 75%)”.

Turning to `FC(F)(F)C(OCc1nnn[nH]1)c1ccc(-c2nccs2)c2oc(N3CC4CC(C3)N4)nc12` (stereo not shown) [Example 231, 4-(1-((1H-tetrazol-5-yl)methoxy)-2,2,2-trifluoroethyl)-2-(3,6-diazabicyclo[3.1.1]heptan-3-yl)-7-(thiazol-2-yl)benzo[d]oxazole], the IC50 with PDE4 (setting [2]) was less than 100 nM. In addition, the “Residual ratio (% remaining for 30-minute reaction)” value in data set [1] is recorded as “A (a % remaining rate of 75% or more)”.

For `CC(C)(O)C(F)(F)Oc1c(Cl)cc(-c2nccs2)c2oc(N3CC4CC(C3)N4)nc12` [Example 400, 1-((2-(3,6-diazabicyclo [3.1.1]heptan-3-yl)-5-chloro-7-(thiazol-2-yl)benzo[d]oxazol-4-yl)oxy)-1,1-difluoro-2-methylpropan-2-ol], the IC50 with PDE4 (setting [3]) was less than 100 nM. In addition, in data set [1], the “Residual ratio (% remaining for 30-minute reaction)” value is “B (60% or more and less than 75%)”.

Consider `OCc1cnc(Oc2ccc(-c3nccs3)c3oc(N4CC5CC(C4)N5)nc23)c(C(F)(F)F)c1` [Example 342, (6-((2-(3,6-diazabicyclo[3.1.1]heptan-3-yl)-7-(thiazol-2-yl)benzo[d]oxazol-4-yl)oxy)-5-(trifluoromethyl)pyridin-3-yl) methanol], for which the IC50 with PDE4 (setting [3]) is less than 100 nM. The “Residual ratio (% remaining for 30-minute reaction)” value in data set [1] is “B (60% or more and less than 75%)”.

For `FC(F)(F)c1c(Cl)cc(-n2cccn2)c2oc(N3CC4CC(C3)N4)nc12` [Example 17, 2-(3,6-Diazabicyclo[3.1.1]heptan-3-yl)-5-chloro-7-(1H-pyrazol-1-yl)-4-(trifluoromethyl)benzo[d]oxazole], the IC50 in the data set on PDE4 (setting [2]) is less than 100 nM. The “Residual ratio (% remaining for 30-minute reaction)” value in data set [1] is “B (60% or more and less than 75%)”.

As to `[O-][S+](CCO)c1ccc(-c2nccs2)c2oc(N3CC4CC(C3)N4)nc12` (stereo not shown) [Example 349, 2-((2-(3,6-diazabicyclo[3.1.1]heptan-3-yl)-7-(thiazol-2-yl)benzo [d]oxazol-4-yl)sulfinyl)ethan-1-ol], the IC50 in the data set with PDE4 (setting [3]) was less than 100 nM. Moreover, in data set [1], the “Residual ratio (% remaining for 30-minute reaction)” value was “A (a % remaining rate of 75% or more)”.

Regarding `CC(O)(CO)C(F)(F)Oc1ccc(-c2nccs2)c2oc(N3CC4CC(C3)N4)nc12` (single isomer, unassigned) [Example 365, 3-((2-(3,6-diazabicyclo [3.1.1]heptan-3-yl)-7-(thiazol-2-yl)benzo[d]oxazol-4-yl)oxy)-3,3-difluoro-2-methylpropane-1,2-diol], in the data set with PDE4 (setting [3]), the IC50 is less than 100 nM. The “Residual ratio (% remaining for 30-minute reaction)” value in data set [1] was “A (a % remaining rate of 75% or more)”.

Take `c1cc(-c2nccs2)c2oc(N3CC4CC(C3)N4)nc2c1` [Example 382, 2-(3,6-diaza-bicyclo[3.1.1]heptan-3-yl)-7-(thiazol-2-yl) benzo[d]oxazole]: in the data set with PDE4 (setting [3]), the IC50 is less than 100 nM. Also, in data set [1], the “Residual ratio (% remaining for 30-minute reaction)” value was “B (60% or more and less than 75%)”.

Regarding `c1csc(-c2ccc(OC3CCOCC3)c3nc(N4CC5CC(C4)N5)oc23)n1` [Example 294, 2-(3,6-Diazabicyclo[3.1.1]heptan-3-yl)-4-((tetrahydro-2H-pyran-4-yl)oxy)-7-(thiazol-2-yl)benzo[d]oxazole], the IC50 with PDE4 (setting [2]) was less than 100 nM. Also, the “Residual ratio (% remaining for 30-minute reaction)” value in data set [1] is given as “A (a % remaining rate of 75% or more)”.

Turning to `OCC(F)(F)Oc1ccc(-c2nccs2)c2oc(N3CC4CC(C3)N4O)nc12` [Example 374, 3-(4-(1,1-difluoro-2-hydroxyethoxy)-7-(thiazol-2-yl)benzo [d]oxazol-2-yl)-3,6-diazabicyclo[3.1.1] heptan-6-ol], in the data set on PDE4 (setting [3]), the IC50 is less than 100 nM. Besides, in data set [1], the “Residual ratio (% remaining for 30-minute reaction)” value is “B (60% or more and less than 75%)”.

Source of the values: patent US10669283B2, “Compound and pharmacologically acceptable salt thereof” (MEIJI SEIKA PHARMA CO., LTD., priority 2016, dated 2020).
